# Measured values as given in ChEMBL document CHEMBL1201862, “PubChem BioAssay data set” (2004).
#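 All cell lines were grown in 96-well plates and treated with compound for 48 hours. At the GI50, growth is halved.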 Calls of active or inactive are those of the source. Cut-off read from the data, not from the text of the source: active = GI50 up to about 1.1 µM and inactive = higher.
# What was measured:
# Assay in all cases: NCI tumour cell line growth inhibition, 48 h
# HOP-18 = tested on: HOP-18
# DLD-1 = tested on: DLD-1
# SNB-78 = tested on: SNB-78
# DMS-114 = tested on: DMS-114
# RXF 631 = tested on: RXF 631
# BT-549 = tested on: BT-549
# MCF7 = tested on: MCF7
# T47D = tested on: T47D
# DMS-273 = tested on: DMS-273
Compound,GI50 (HOP-18),GI50 (DLD-1),GI50 (SNB-78),GI50 (DMS-114),GI50 (RXF 631),GI50 (BT-549),GI50 (MCF7),GI50 (T47D),GI50 (DMS-273)
Cc1c(OC(C)C(=O)O)ccc2c(-c3ccccc3)cc(=O)oc12 (stereo not drawn),> 100 µM (inactive),> 100 µM (inactive),> 100 µM (inactive),> 100 µM (inactive),> 100 µM (inactive),–,–,–,–
COc1cccc(C2c3cc4c(cc3OC(N3CCOCC3)C2C)OCO4)c1 (stereo not drawn),–,–,–,–,–,3.39 µM (inactive),6.61 µM (inactive),27.5 µM (inactive),–
COc1ccc(-c2cs/c(=N\c3ccccc3)n2CCCN(C)C)cc1,–,–,–,–,–,19.2 µM (inactive),–,–,–
CCN(CC)CCO[Si](OCCN(CC)CC)(OCCN(CC)CC)OCCN(CC)CC,–,> 100 µM (inactive),–,> 100 µM (inactive),> 100 µM (inactive),–,–,–,> 100 µM (inactive)
Cc1cc(C)nc(NS(=O)(=O)c2ccc(NC(=O)c3cccc4c(Nc5ccc(S(=O)(=O)Nc6cc(C)on6)cc5)c5ccccc5nc34)cc2)n1,–,30.1 µM (inactive),41.7 µM (inactive),20.7 µM (inactive),–,–,–,–,–
O=C(Nc1ccc(Cl)c(Cl)c1)C(=O)C(C(=O)c1ccccc1F)C1OC(=O)c2ccccc21 (stereo not drawn),–,26.4 µM (inactive),11.2 µM (inactive),18.7 µM (inactive),–,–,–,–,13.2 µM (inactive)
CC1(Br)S(=O)(=O)OCCOS1(=O)=O,–,> 100 µM (inactive),> 100 µM (inactive),> 100 µM (inactive),–,–,–,–,> 100 µM (inactive)
ON(Cc1ccccc1)C(=S)c1ccccc1,15.9 µM (inactive),5.18 µM (inactive),31.8 µM (inactive),2.22 µM (inactive),5.38 µM (inactive),39.2 µM (inactive),3.28 µM (inactive),5.9 µM (inactive),2.62 µM (inactive)
CSc1sc(C)cc1-c1nsc(=O)o1,–,–,–,–,–,–,> 100 µM (inactive),–,–
COc1ccc2c(c1)OC(c1ccccc1O)CC2=O (stereo not drawn),5.64 µM (inactive),29 µM (inactive),26.5 µM (inactive),–,–,–,–,–,–
C=CCCON(C(=O)OC(C)(C)C)c1ccccc1,–,–,–,–,–,> 100 µM (inactive),–,95.1 µM (inactive),–
COc1ccc(NC(=O)C(=O)NNC(=O)c2sc(NNC(C)=O)nc2C)c([N+](=O)[O-])c1,–,–,> 100 µM (inactive),> 100 µM (inactive),–,–,–,–,> 100 µM (inactive)
O=C1C(Cl)C2(CC(/C=C/c3cccs3)=NN2c2cccc(S(=O)(=O)O)c2)N1c1nc2ccccc2s1 (stereo not drawn),–,–,–,–,–,55.6 µM (inactive),46.6 µM (inactive),13.6 µM (inactive),–
C#CCN(Cc1ccc2nc(-c3ccccc3)c(Cl)nc2c1)c1ccc(F)cc1,–,–,–,–,–,> 100 µM (inactive),63.8 µM (inactive),38 µM (inactive),–
COc1nc(N=P(c2ccccc2)(c2ccccc2)c2ccccc2)cc(=O)n1C,–,–,–,–,–,> 100 µM (inactive),> 100 µM (inactive),> 100 µM (inactive),–
COc1cc(C(C)c2cc3c(cc2OCCOCCOc2cc4c(cc2C(C)c2cc(OC)c(OC)c(OC)c2)OCO4)OCO3)cc(OC)c1OC (stereo not drawn),> 10 µM (inactive),> 10 µM (inactive),> 10 µM (inactive),> 10 µM (inactive),> 10 µM (inactive),–,–,–,> 10 µM (inactive)
CCOC(=O)c1sc2nc(SC)nc(N3CCCCC3)c2c1N,–,–,–,–,–,> 100 µM (inactive),–,> 100 µM (inactive),–
CCOC(=O)C1(C#N)C(c2ccccc2)CC(O)(c2ccc(OC)cc2)C(C(=O)c2ccc(OC)cc2)C1c1ccccc1 (stereo not drawn),15.6 µM (inactive),> 100 µM (inactive),> 100 µM (inactive),> 100 µM (inactive),–,–,–,–,> 100 µM (inactive)

Compound,GI50 (HOP-18),GI50 (DLD-1),GI50 (SNB-78),GI50 (DMS-114),GI50 (RXF 631),GI50 (BT-549),GI50 (MCF7),GI50 (T47D),GI50 (DMS-273)
Brc1cc(CCOC2CCCCO2)c(-c2sccc2CCOC2CCCCO2)s1 (stereo not drawn),–,–,–,–,–,49.7 µM (inactive),20.3 µM (inactive),> 100 µM (inactive),–
CCc1ncc(C(C)(O)c2ccccc2)n1Cc1ccccc1 (stereo not drawn),–,–,–,–,–,45.3 µM (inactive),67.8 µM (inactive),73.6 µM (inactive),–
CC(C)CCNc1ncnc2[nH]ncc12,–,–,–,–,–,> 100 µM (inactive),72.8 µM (inactive),45.7 µM (inactive),–
Cn1c(=O)c(Cl)c(N=[N+]=[N-])c2ccccc21,–,–,–,–,–,–,67.3 µM (inactive),64 µM (inactive),–
CC1=CC(=O)CC2(C)CCC(C(C)CC(=O)CC(C)C)CC12 (stereo not drawn),–,–,–,–,–,–,25.6 µM (inactive),–,–
CCOC(=O)CCC1(C(=O)OCC)CCCCC1=O (stereo not drawn),81.8 µM (inactive),> 100 µM (inactive),> 100 µM (inactive),> 100 µM (inactive),–,–,–,–,> 100 µM (inactive)
C=CCNC(=O)N(CCC)CCCC(NC(C)=O)C(=O)NCc1ccccc1 (stereo not drawn),16.3 µM (inactive),–,–,> 100 µM (inactive),> 100 µM (inactive),–,–,–,> 100 µM (inactive)
O=c1oc2ccc(-n3c(=O)c4ccccc4c4ccccc4c3=O)cc2c2ccccc12,–,–,–,–,–,57.1 µM (inactive),> 100 µM (inactive),> 100 µM (inactive),–
CCOC(=O)Cc1cc(OC)c(OC)cc1/C(Cl)=C(\CO)c1ccc(OC)c(OC)c1,> 100 µM (inactive),> 100 µM (inactive),59 µM (inactive),66.5 µM (inactive),> 100 µM (inactive),–,–,–,> 100 µM (inactive)
C=C(C)C1Cc2c(cc(O)c3c(=O)c4ccccc4n(C)c23)O1 (stereo not drawn),16 µM (inactive),27.1 µM (inactive),35.6 µM (inactive),> 100 µM (inactive),37 µM (inactive),–,–,–,31.3 µM (inactive)
CN(C)CCCNC(=S)S,–,–,–,–,–,> 100 µM (inactive),> 100 µM (inactive),–,–
COC(=O)C12C3C4C1C1C2C3C41C(=O)O (stereo not drawn),> 100 µM (inactive),> 100 µM (inactive),> 100 µM (inactive),> 100 µM (inactive),> 100 µM (inactive),–,–,–,–
Nc1ncnc2c1ncn2C1C(O)C=C(CO)C1O (stereo not drawn),> 625 µM (inactive),> 625 µM (inactive),> 625 µM (inactive),> 625 µM (inactive),–,–,> 625 µM (inactive),–,> 625 µM (inactive)
COC1=CC(=O)[C@@]2(C)C(C)[C@H](c3ccccc3)[C@H]2C1=O (stereo partly drawn),–,> 100 µM (inactive),> 10 µM (inactive),–,> 100 µM (inactive),–,–,–,> 100 µM (inactive)
COC(=O)N[C@H](C(=O)NC(OCc1ccccc1)C1COC(C)(C)O1)C(C)O[Si](C)(C)C(C)(C)C (stereo partly drawn),–,–,–,–,–,–,27.6 µM (inactive),> 100 µM (inactive),–
OC1(c2ccc(Cl)cc2)c2ccc3ccccc3c2C2=N[C@H]3CCCC[C@@H]3N21 (stereo partly drawn),–,–,–,–,–,–,8.45 µM (inactive),3.13 µM (inactive),–
O=c1c2cc(I)ccc2nc(-c2cccs2)n1O,–,–,–,–,–,33.2 µM (inactive),50 µM (inactive),26.2 µM (inactive),–
S=C=NCCc1ccccc1 [PHENETHYLISOTHIOCYANATE],–,0.0596 µM (active),0.818 µM (active),0.382 µM (active),–,–,–,–,0.255 µM (active)
